The source made the active and inactive calls.
Experiments:
[1] = target: T1, Polyadenylate-binding protein 1 (Homo sapiens, UniProt P11940); test: MLLE binding blockers, Cy5 peptide tracer – biochemical, fluorescence polarization, Cy5-PAM2 peptide, secondary, miRNA deadenylation inhibitor project, dose response (AID 602260); format: functional; settings: read-out: IC50_Mean
[2] = target: T1, Polyadenylate-binding protein 1; test: MLLE domain peptide-binding blockers, IC50 – biochemical, fluorescence polarization, FITC-PAM2 peptide, dose response (AID 602259); format: functional; settings: read-out: IC50_Mean
[3] = target: Potassium voltage-gated channel subfamily KQT member 2 (Rattus norvegicus, UniProt O88943); test: potentiation of rat KCNQ2 current – cell-based, retigabine-insensitive compounds, dose response (AID 2654); format: functional
Potassium voltage-gated channel subfamily KQT member 2, sequence (O88943 whole entry): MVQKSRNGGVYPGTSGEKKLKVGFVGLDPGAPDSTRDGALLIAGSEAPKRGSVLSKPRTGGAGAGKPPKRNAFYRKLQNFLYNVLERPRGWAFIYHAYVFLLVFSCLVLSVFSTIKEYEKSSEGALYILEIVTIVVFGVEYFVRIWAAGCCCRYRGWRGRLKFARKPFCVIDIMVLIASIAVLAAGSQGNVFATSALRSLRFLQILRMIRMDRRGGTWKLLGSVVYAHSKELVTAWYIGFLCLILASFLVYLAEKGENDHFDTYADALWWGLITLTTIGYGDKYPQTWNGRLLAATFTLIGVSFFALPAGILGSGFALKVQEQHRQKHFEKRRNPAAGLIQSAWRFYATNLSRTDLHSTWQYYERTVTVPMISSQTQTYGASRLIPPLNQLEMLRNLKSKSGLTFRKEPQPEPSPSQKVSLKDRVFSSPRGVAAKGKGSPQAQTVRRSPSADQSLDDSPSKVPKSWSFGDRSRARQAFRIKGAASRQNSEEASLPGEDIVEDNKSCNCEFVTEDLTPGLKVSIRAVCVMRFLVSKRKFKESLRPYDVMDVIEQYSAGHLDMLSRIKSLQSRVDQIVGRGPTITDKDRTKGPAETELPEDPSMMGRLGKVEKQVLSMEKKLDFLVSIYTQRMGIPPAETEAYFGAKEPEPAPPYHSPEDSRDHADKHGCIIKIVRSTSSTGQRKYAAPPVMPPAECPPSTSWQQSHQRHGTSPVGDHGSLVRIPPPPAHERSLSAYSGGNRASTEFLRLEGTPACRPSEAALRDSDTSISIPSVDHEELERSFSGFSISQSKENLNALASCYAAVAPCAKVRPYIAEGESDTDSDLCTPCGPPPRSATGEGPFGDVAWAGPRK

[4] = target: Voltage-dependent T-type calcium channel subunit alpha-1H (Homo sapiens, UniProt O95180); test: human CACNA1H calcium influx blockade – cell-based, synthetic library set 1, calcium flux (AID 493022); format: functional
BJ [5] = test: BJ-TERT-LT-ST fibroblast viability loss – cell-based, RAS-independent, luminescence, dose response (AID 1935); format: functional; settings: Homo sapiens;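 further: BJ fibroblasts immortalized with TERT plus LT and ST oncogenes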
[6] = DRD fibroblast viability loss – cell-based, non-viral oncogenic, luminescence, dose response (AID 1934); format: functional; settings: Homo sapiens
J774.A1 = test: Confirmation of image-based Screening Assay for Inhibitors of Phagocytosis. [Related pubchem assays (depositor defined):AID1029, AID1643]; format: functional, cell-based; settings: Mus musculus
[7] = HEK-293T viability loss after treatment – luminescence, T-cell screen hits, cytotoxicity control for TCR NF-kB inhibitor project, dose response (AID 489026); format: functional, cell-based;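 further: cells exposed to compound about 14 hours before the viability readout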
BJ [8] = test: cells; format: functional, cell-based; settings: Homo sapiens
BJ [9] = test: BJ-TERT fibroblast viability loss – cell-based, RAS-independent, luminescence, dose response (AID 1933); format: functional; settings: Homo sapiens
Beta-galactosidase = Beta-galactosidase (Escherichia coli, UniProt Q8VNN2); test: detection-enzyme interference by beta-gal modulators – biochemical, E. coli enzyme, set 3, artefact control for CCR6 antagonist project, dose response (AID 504712); format: functional
Beta-galactosidase, sequence (Q8VNN2 whole entry): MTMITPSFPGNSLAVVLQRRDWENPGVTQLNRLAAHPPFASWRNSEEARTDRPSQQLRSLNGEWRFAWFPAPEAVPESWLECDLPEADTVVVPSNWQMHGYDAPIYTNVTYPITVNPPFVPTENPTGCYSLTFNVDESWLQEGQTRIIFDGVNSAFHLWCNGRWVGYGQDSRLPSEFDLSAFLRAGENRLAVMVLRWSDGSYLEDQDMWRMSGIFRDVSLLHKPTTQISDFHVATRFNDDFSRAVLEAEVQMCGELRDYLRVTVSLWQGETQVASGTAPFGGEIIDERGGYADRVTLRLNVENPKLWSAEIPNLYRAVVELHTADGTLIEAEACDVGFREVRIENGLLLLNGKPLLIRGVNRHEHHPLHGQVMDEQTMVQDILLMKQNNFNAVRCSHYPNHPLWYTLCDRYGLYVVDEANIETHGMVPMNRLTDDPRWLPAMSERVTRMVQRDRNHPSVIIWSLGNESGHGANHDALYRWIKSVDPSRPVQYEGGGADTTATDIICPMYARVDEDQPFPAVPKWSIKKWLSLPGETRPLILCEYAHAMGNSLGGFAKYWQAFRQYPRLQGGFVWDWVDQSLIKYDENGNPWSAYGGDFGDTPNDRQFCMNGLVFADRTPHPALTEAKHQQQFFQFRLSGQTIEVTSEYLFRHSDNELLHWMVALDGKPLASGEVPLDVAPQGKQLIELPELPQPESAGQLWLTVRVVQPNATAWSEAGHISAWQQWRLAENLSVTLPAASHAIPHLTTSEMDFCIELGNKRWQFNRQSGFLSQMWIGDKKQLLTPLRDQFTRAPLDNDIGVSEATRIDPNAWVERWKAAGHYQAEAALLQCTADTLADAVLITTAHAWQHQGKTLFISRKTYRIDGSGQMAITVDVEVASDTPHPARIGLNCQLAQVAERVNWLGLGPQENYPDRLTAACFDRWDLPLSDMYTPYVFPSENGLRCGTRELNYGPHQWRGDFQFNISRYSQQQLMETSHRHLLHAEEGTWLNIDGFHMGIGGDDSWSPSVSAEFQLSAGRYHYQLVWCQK

[10] = target: Glucose-6-phosphate 1-dehydrogenase (Homo sapiens, UniProt P11413); test: inhibition of Homo sapiens G6PD, dose series – biochemical, fluorescence, selectivity assay for P. falciparum G6PD inhibitor project, dose response (AID 504792); format: functional
Genome polyprotein = Genome polyprotein (dengue virus type 2, UniProt P29990); test: flavivirus cap methylation enzyme inhibition – biochemical, confirmation dose response, primary screen (AID 588689); format: functional
Genome polyprotein, sequence (P29990 2492-3391 limits assumed): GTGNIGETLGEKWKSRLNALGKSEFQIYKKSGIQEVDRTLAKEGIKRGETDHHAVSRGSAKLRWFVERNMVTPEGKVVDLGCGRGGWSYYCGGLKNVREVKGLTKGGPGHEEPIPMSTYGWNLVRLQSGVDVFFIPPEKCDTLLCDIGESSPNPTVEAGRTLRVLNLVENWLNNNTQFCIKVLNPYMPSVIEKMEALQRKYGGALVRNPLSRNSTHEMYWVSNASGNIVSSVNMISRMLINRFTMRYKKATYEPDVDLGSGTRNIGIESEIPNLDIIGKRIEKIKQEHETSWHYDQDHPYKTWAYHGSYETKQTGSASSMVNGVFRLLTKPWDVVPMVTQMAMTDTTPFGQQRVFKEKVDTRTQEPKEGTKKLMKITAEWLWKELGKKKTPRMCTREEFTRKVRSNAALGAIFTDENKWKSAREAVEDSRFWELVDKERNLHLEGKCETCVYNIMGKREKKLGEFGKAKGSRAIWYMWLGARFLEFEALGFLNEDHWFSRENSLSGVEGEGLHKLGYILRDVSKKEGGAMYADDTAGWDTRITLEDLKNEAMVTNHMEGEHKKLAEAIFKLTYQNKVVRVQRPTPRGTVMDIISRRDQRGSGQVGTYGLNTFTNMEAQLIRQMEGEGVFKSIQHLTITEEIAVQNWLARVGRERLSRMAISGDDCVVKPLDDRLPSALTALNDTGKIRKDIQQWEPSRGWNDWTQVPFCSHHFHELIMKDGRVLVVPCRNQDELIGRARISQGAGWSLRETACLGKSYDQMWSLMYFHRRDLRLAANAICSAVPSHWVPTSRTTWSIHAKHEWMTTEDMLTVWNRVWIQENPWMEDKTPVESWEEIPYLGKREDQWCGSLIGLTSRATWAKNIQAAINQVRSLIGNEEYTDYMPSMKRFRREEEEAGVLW

Hexokinase HKDC1 = target: T2, Hexokinase HKDC1 (Homo sapiens, UniProt Q2TB90); test: inhibition of HKDC1 glucose phosphorylation – biochemical, W721R variant, dose response (AID 504729); format: functional
T2 sequence (Q2TB90 whole entry): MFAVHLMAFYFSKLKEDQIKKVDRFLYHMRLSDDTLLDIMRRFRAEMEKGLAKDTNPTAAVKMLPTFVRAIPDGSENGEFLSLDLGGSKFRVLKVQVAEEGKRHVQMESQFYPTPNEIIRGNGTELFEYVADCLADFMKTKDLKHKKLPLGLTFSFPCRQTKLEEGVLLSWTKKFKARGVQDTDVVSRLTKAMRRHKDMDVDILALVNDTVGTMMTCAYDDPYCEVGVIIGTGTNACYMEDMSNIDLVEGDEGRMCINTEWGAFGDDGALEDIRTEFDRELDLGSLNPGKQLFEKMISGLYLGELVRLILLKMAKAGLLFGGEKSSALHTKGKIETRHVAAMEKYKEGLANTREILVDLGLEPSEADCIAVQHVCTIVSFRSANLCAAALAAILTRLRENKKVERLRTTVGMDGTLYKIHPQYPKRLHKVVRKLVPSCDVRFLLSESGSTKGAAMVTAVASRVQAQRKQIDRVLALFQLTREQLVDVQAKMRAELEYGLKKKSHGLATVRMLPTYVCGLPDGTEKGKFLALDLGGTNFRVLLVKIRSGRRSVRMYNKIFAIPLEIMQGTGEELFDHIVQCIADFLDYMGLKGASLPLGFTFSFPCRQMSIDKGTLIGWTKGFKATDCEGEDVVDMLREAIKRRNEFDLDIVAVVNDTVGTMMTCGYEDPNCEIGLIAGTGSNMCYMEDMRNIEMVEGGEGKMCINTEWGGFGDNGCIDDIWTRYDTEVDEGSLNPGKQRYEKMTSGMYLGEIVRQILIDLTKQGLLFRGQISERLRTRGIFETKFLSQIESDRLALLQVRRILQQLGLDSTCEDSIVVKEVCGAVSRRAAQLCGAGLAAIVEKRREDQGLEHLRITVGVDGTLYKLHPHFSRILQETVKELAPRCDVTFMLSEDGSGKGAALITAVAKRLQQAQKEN

[11] = target: T3, Hepatocyte nuclear factor 4-alpha (Homo sapiens, UniProt P41235); format: functional, cell-based;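 further: biochemical luminescence-based dose-response counterscreen measuring inhibition of HNF4 dimerization, run alongside a screen for blockers of ABHD5–perilipin-5 interaction; split luciferase complementation of HNF4 fusion proteins in cell lysate measuring dimerization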
T3 sequence (P41235 whole entry): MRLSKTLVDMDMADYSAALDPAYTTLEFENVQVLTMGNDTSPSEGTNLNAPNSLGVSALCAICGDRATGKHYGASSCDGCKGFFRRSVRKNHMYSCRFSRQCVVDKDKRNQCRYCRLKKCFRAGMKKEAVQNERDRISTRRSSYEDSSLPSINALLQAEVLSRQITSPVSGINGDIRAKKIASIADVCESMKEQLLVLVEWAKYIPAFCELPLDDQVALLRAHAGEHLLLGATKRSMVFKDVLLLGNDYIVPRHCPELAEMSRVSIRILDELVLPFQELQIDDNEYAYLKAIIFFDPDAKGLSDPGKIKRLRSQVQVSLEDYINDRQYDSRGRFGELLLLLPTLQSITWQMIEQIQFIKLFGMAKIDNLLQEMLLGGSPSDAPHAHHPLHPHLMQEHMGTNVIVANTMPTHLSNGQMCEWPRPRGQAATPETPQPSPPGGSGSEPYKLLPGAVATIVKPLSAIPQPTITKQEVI

[12] = target: G-protein coupled receptor 55 (Homo sapiens, UniProt Q9Y2T6); test: SAR Analysis of Selective Antagonists of GPR55 using an Image-Based Assay - Set 3. [Related pubchem assays (depositor defined):AID2058, AID2079]; format: functional
G-protein coupled receptor 55, sequence (Q9Y2T6 whole entry): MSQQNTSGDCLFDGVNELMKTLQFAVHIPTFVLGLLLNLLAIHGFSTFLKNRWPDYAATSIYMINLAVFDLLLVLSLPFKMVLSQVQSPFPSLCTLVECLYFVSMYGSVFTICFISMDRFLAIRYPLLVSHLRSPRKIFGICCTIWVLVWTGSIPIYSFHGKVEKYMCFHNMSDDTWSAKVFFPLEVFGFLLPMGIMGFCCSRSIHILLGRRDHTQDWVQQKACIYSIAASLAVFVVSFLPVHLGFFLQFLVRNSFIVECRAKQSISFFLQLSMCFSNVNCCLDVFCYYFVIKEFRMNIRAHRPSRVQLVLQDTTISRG

[13] = target: G-protein coupled receptor 35 (Homo sapiens, UniProt Q9HC97); test: SAR analysis of Antagonists of the GPR35 Receptor using an Image-Based Assay - Set 5. [Related pubchem assays (depositor defined):AID2058, AID2079]; format: functional
G-protein coupled receptor 35, sequence (Q9HC97 whole entry): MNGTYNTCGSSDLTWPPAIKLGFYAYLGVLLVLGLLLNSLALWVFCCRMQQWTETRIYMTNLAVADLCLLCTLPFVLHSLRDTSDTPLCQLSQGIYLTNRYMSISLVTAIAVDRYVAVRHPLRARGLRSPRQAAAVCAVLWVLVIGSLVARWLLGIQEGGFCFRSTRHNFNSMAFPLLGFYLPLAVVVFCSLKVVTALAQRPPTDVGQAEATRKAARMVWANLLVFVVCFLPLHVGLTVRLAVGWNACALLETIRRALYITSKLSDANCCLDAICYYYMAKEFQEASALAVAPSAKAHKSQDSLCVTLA

Cytochrome P450 2D6 = Cytochrome P450 2D6 (Homo sapiens, UniProt P10635);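 further: CYP2D6 member of a cytochrome P450 panel assay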
[14] = target: Phosphoethanolamine/phosphocholine phosphatase (Homo sapiens, UniProt Q8TCT1); test: SAR assay for compounds that inhibit PHOSPHO1. [Related pubchem assays (depositor defined):AID1545, AID1565, AID1574]
Phosphoethanolamine/phosphocholine phosphatase, sequence (Q8TCT1 whole entry): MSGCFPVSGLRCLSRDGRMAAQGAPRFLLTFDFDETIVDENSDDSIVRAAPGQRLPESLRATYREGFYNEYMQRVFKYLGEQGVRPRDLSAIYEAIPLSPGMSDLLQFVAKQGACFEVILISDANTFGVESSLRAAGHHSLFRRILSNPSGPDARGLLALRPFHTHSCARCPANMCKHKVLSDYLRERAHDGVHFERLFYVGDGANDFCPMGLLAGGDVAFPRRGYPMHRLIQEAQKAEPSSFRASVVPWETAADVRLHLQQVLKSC

[15] = target: T4, Dual specificity protein phosphatase 6 (Rattus norvegicus, UniProt Q64346)
T4 sequence (Q64346 whole entry): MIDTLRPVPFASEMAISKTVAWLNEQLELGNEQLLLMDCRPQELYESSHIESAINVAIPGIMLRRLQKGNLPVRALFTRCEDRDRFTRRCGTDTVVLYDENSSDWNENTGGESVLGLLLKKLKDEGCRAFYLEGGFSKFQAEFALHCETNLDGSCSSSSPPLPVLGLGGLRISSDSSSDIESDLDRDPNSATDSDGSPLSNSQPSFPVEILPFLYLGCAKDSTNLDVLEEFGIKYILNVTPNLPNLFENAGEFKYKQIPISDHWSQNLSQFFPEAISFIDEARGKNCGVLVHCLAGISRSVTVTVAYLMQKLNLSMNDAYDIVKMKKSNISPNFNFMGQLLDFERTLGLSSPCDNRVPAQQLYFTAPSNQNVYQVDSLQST

[16] = target: T5, Dual specificity protein phosphatase 3 (Homo sapiens, UniProt P51452); test: MOA VHR1 Fluorescent secondary assay for identification of redox-state modulating compounds. [Related pubchem assays (depositor defined):AID1654, AID1661, AID1878, AID1957]
T5 sequence (P51452 whole entry): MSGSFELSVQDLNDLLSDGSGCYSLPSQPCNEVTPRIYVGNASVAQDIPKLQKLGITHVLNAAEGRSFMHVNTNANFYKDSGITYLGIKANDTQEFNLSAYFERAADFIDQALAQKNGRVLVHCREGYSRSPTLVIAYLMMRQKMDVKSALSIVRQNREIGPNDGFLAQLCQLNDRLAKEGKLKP

[17] = target: T5, Dual specificity protein phosphatase 3; test: SAR VHR1 Fluorescent Assay for In Vitro dose response studies. [Related pubchem assays (depositor defined):AID1654, AID1661, AID1878, AID1992, AID2004, AID2070, AID2085]; format: functional
[18] = target: T6, Tyrosine-protein phosphatase non-receptor type 7 (Homo sapiens, UniProt P35236); test: redox-active compounds inhibiting HePTP phosphatase – biochemical, fluorescence, mechanism study (AID 2068); format: functional
T6 sequence (P35236 whole entry): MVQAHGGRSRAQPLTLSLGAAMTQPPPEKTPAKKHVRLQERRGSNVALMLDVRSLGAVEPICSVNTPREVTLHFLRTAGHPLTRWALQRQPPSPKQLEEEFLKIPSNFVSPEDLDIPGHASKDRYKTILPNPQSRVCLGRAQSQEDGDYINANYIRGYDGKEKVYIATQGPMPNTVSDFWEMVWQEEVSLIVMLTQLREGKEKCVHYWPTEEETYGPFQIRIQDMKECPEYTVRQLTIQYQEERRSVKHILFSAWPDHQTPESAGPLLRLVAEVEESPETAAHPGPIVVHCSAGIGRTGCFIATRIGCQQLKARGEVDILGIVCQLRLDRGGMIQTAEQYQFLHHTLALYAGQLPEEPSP

[19] = target: T4, Dual specificity protein phosphatase 6; format: functional
[20] = target: T6, Tyrosine-protein phosphatase non-receptor type 7; format: functional
[21] = target: Glyceraldehyde-3-phosphate dehydrogenase (Homo sapiens, UniProt P04406)
Glyceraldehyde-3-phosphate dehydrogenase, sequence (P04406 whole entry): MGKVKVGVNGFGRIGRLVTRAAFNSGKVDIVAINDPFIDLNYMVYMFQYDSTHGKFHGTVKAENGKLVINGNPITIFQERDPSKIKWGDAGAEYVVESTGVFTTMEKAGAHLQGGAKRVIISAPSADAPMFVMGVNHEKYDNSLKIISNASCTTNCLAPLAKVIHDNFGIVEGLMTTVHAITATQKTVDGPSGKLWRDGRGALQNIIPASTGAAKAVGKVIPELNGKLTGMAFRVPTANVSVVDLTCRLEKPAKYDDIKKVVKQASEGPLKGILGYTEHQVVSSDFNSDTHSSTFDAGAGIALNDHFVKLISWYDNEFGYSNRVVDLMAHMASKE

[22] = Vero E6 cell cytotoxicity, dose response, cytotoxicity control for non-replicating M. tuberculosis project, secondary assay (AID 492998); format: functional, VeroE6; settings: Vero C1008
[23] = target: NACHT, LRR and PYD domains-containing protein 3 (Homo sapiens, UniProt Q96P20); test: NALP3 inhibitors in yeast, dose response, luminescent (AID 488799); format: functional
[24] = fluconazole-exposed Candida albicans growth modulators – fluorescence, retest, confirmation (AID 2467); format: functional, cell-based
cells = format: functional
[25] = target: T7, Serine/threonine-protein phosphatase (Candida dubliniensis (strain CD36 / CBS 7987 / NCPF 3949 / NRRLY-17841) (Yeast), UniProt B9W6M3); test: blockers of CaCl2-induced CDRE-lacZ signaling – S. cerevisiae, luminescence, secondary, dose response (AID 2388); format: functional, cell-based;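 further: yeast reporter cells carrying a calcineurin-responsive lacZ construct stimulated with calcium chloride; luminescent beta-galactosidase reporter signal in whole cells rather than isolated phosphatase activity; potency for inhibition where a drop in reporter signal means calcineurin blockade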
T7 sequence (B9W6M3 whole entry): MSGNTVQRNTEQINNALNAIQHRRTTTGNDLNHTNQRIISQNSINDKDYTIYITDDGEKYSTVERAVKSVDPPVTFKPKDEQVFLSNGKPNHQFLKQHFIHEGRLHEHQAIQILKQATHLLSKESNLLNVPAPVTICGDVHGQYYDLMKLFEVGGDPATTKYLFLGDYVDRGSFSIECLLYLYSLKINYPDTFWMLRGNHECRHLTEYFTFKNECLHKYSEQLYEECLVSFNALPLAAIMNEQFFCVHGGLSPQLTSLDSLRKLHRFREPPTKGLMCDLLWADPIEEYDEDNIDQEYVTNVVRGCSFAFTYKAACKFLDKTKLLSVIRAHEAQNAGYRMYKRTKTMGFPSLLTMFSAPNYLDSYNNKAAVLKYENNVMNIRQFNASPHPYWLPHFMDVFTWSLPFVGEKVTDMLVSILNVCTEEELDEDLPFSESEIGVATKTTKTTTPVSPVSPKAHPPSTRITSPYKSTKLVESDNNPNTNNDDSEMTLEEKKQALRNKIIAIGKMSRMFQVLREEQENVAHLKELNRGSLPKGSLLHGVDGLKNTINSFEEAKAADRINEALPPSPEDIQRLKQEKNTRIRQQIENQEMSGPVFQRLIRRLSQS

[26] = HepG2 cell cytotoxicity, dose response, cytotoxicity control for non-replicating M. tuberculosis project (AID 489018); format: functional; settings: Mycobacterium tuberculosis
[27] = THP-1 cell cytotoxicity, dose response, cytotoxicity control for non-replicating M. tuberculosis project (AID 489025); format: functional
[28] = NIH-3T3 fibroblast cytotoxicity, dose response, cytotoxicity control, cell-based, fluorescence, Alamar Blue, secondary assay (AID 2327); format: functional;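 further: NIH-3T3 mouse fibroblasts cultured with fluconazole at 8 µg/mL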
[29] = target: ATP-dependent molecular chaperone HSP82 (Candida albicans (strain WO-1) (Yeast), UniProt C4YTQ8); test: steroid-induced GRE reporter decrease in yeast – S. cerevisiae, luminescence, Hsp90 inhibitor project, dose response (AID 2400); format: functional, cell-based;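 further: beta-galactosidase luminescence from glucocorticoid response element reporter as proxy for Hsp90 function; inhibitor potency where signal loss means Hsp90 inhibition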
[30] = target: Sphingosine 1-phosphate receptor 4 (Homo sapiens, UniProt O95977); test: potency of S1P4 activators – cell-based, fluorescence, synthesized compounds, late-stage follow-up (AID 463107); format: functional

T1 sequence (P11940 whole entry, the tested form may be a part): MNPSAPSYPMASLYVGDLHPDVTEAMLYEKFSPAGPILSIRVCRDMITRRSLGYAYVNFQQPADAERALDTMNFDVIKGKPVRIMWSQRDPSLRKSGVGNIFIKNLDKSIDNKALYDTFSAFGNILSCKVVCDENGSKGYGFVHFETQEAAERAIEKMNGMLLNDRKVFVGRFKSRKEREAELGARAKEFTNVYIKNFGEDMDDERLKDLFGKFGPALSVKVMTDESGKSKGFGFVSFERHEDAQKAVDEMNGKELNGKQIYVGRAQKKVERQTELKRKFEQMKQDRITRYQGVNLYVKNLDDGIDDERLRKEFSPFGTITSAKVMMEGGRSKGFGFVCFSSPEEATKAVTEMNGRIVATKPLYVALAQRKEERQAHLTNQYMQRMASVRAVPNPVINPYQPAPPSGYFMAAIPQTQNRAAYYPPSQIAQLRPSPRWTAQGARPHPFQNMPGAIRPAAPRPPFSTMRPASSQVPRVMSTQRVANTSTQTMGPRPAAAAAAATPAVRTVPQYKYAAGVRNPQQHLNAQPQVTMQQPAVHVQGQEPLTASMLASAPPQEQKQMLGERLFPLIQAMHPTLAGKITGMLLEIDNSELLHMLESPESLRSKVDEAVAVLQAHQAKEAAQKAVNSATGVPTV

## Fc1cccc(NC(=S)Nc2cccnc2)c1
[1]
  IC50: > 66 µM (inactive)
[2]
  IC50: > 66 µM (inactive)
[3]
  EC50: 41.9 µM (active)

## Cc1ccc(-c2nnc(NC(=O)COc3ccccc3Cl)o2)cc1C
[4]
  EC50: 1.3 µM (active)

## CCOc1ccccc1C1CC(=O)Nc2cc3c(cc21)OCCO3 (stereo unspecified)
BJ [5]
  EC50: 0.814 µM (inconclusive)
[6]
  EC50: 0.829 µM (active)
J774.A1
  IC50: > 25 µM (inactive)
[7]
  IC50: > 80 µM (inactive)
BJ [8]
  EC50: 22.3 µM (active)
BJ [9]
  EC50: 1.23 µM (active)

## CN(C)c1ccc(Cc2cc3c(O)ccc(O)c3cc(Cc3ccc(N(C)C)cc3)c2=O)cc1
Beta-galactosidase
  IC50: > 66.6 µM (inactive)
[10]
  IC50: 56.7 µM (inactive)
Genome polyprotein
  IC50: 44.1 µM (active)
Hexokinase HKDC1
  IC50: 10.9 µM (active)
[11]
  IC50: 4.6 µM (active)

## COC(=O)c1cnn(-c2ccc(Cl)cc2)c1/C=N/NC(N)=S
[12]
  IC50: > 32 µM (inactive)
[13]
  IC50: 4.6 µM (active)

## Cc1c(OCC(F)(F)F)ccnc1C[S+]([O-])c1nc2ccccc2[nH]1 (stereo unspecified) [LANSOPRAZOLE]
Cytochrome P450 2D6
  AC50: 12.6 µM (inconclusive)
[14]
  IC50: 0.434 µM (active)

## O=c1/c(=C/c2cccc(Br)c2)sc2nc3cc(Br)cnc3n12
[15]
  IC50: > 100 µM (inactive)
[16]
  IC50: > 100 µM (inactive)
[17]
  IC50: > 100 µM (inactive)
[18]
  IC50: 98.3 µM (active)
[19]
  IC50: > 100 µM (inactive)
[20]
  IC50: > 100 µM (not active)
[21]
  IC50: > 100 µM (not active)

## O=c1c2cc(Br)ccc2nc(-c2ccc([N+](=O)[O-])cc2)n1O
[22]
  CC50: 18.4 µM (active)
[23]
  IC50: 4.91 µM (active)
[24]
  EC50: 0.585 µM (active)
cells
  IC50: 11.9 µM (active)
[25]
  EC50: 3.07 µM (active)
[26]
  CC50: 19.9 µM (active)
[27]
  CC50: 20.3 µM (active)
[28]
  EC50: > 150 µM (inactive)
[29]
  EC50: 2.56 µM (active)

## Cc1ccc(OCCCOc2ccc(Cl)cc2Cl)c([N+](=O)[O-])n1
[30]
  EC50: > 50 µM (inactive)
